We go through 8 molecules from patent US20150045291A1, “LIPOPEPTIDE CONJUGATES COMPRISING SPHINGOLIPID AND HIV GP41 DERIVED PEPTIDES” (priority 2012, published 2015).

The structures appear in SMILES notation. Starred links: 1 amine or outer side, 2 acyl side, 3 side chain; linkers in the order of their positions; H or OH if unused. Residues, ends and D or L forms follow the SMILES beside them. Groups on a side chain read outwards from the residue. *: point of attachment. Sphinganine = CCCCCCCCCCCCCCC[C@@H](O)[C@H](CO)N*; CO = O=C([*:1])[*:2] A value given as a limit tells only on which side of the number the result lay.

This assay has as its system fully infectious HIV-1 HXB2. Conditions: for IC50: fully infectious HIV-1 system (Table 2).

Consider `CC[C@H](C)[C@H](NC(=O)CNC(=O)[C@H](Cc1c[nH]c2ccccc12)NC(=O)[C@@H](NC(=O)[C@@H](NC(=O)[C@H](CC(C)C)NC(=O)[C@H](CCC(N)=O)NC(=O)[C@H](CC(C)C)NC(=O)[C@@H](N)CC(C)C)[C@@H](C)O)C(C)C)C(=O)N[C@@H](CCCCN)C(=O)N[C@@H](CCC(N)=O)C(=O)N[C@@H](CC(C)C)C(=O)N[C@@H](CCC(N)=O)C(=O)N[C@@H](C)C(=O)N[C@@H](CCCNC(=N)N)C(=O)N[C@H](C(=O)N[C@@H](CC(C)C)C(=O)N[C@@H](CCCCN)C(N)=O)[C@@H](C)CC` [N17K, LLQLTVWGIKQLQARILK] (H-LLQLTVWGIKQLQARILK-NH2; C-terminus assumed), for which the IC50 (as a rule, the point on the concentration scale where inhibition reaches its midpoint) is greater than 4 µM.
As to `CCCCCCCCCCCCCCC[C@@H](O)[C@@H](N)CO` [sphinganine, D-erythro-Dihydrosphingosine, reference compound], where the note is “at / up to 1 μM”, the “Effect on viral infectivity / fusion (in words)” value is “did not affect viral infectivity”.
Regarding `CC(C)C[C@H](NC(=O)[C@H](CCCNC(=N)N)NC(=O)[C@H](CCCNC(=N)N)NC(=O)[C@H](C)NC(=O)[C@H](CCC(N)=O)NC(=O)[C@H](CC(N)=O)NC(=O)[C@H](CCC(N)=O)NC(=O)[C@H](CCCCN)NC(=O)[C@H](CO)NC(=O)CNC(=O)[C@H](Cc1c[nH]c2ccccc12)NC(=O)[C@@H](NC(=O)[C@H](CO)NC(=O)[C@H](CC(C)C)NC(=O)[C@H](CCC(N)=O)NC(=O)[C@H](CCC(=O)O)NC(=O)[C@@H](N)CC(C)C)C(C)C)C(N)=O` [N17mut (a, d), LEQLSVWGSKQNQARRL] (H-LEQLSVWGSKQNQARRL-NH2; C-terminus assumed), the IC50 was greater than 4 µM.
As for `CCCCCCCCCCCCCCC[C@@H](O)[C@H](CO)NC(=O)N[C@@H](CC(C)C)C(=O)N[C@@H](CCC(=O)O)C(=O)N[C@@H](CCC(N)=O)C(=O)N[C@@H](CC(C)C)C(=O)N[C@@H](CO)C(=O)N[C@H](C(=O)N[C@@H](Cc1c[nH]c2ccccc12)C(=O)NCC(=O)N[C@@H](CO)C(=O)N[C@@H](CCCCN)C(=O)N[C@@H](CCC(N)=O)C(=O)N[C@@H](CC(N)=O)C(=O)N[C@@H](CCC(N)=O)C(=O)N[C@@H](C)C(=O)N[C@@H](CCCNC(=N)N)C(=O)N[C@@H](CCCNC(=N)N)C(=O)N[C@@H](CC(C)C)C(N)=O)C(C)C` [Sphing-N17mut (a, d)] ({Sphinganine-CO}-LEQLSVWGSKQNQARRL-NH2), the IC50 is greater than 4 µM.
Same read-out and setting: with `CCCCCCCCCCCCCCC[C@@H](O)[C@H](CO)NC(=O)N[C@@H](CCC(N)=O)C(=O)N[C@@H](CCCCN)C(=O)N[C@H](C(=O)N[C@@H](C)C(=O)N[C@@H](CCCNC(=N)N)C(=O)N[C@@H](CC(C)C)C(=O)N[C@@H](CCC(N)=O)C(=O)N[C@H](C(=O)N[C@@H](CC(C)C)C(=O)N[C@@H](Cc1c[nH]c2ccccc12)C(=O)N[C@@H](CC(C)C)C(=O)N[C@@H](CCC(N)=O)C(=O)N[C@H](C(=O)NCC(=O)N[C@H](C(=O)N[C@@H](CC(C)C)C(=O)N[C@@H](CC(C)C)C(N)=O)C(C)C)[C@@H](C)CC)[C@@H](C)O)[C@@H](C)CC` [Sphing-N17 scrambled] ({Sphinganine-CO}-QKIARLQTLWLQIGVLL-NH2) the figure was greater than 4 µM.
On to `CC[C@H](C)[C@H](NC(=O)CNC(=O)[C@H](Cc1c[nH]c2ccccc12)NC(=O)[C@@H](NC(=O)[C@@H](NC(=O)[C@H](CC(C)C)NC(=O)[C@H](CCC(N)=O)NC(=O)[C@H](CC(C)C)NC(=O)[C@@H](N)CC(C)C)[C@@H](C)O)C(C)C)C(=O)N[C@@H](CCCCN)C(=O)N[C@@H](CCC(N)=O)C(=O)N[C@@H](CC(C)C)C(=O)N[C@@H](CCC(N)=O)C(=O)N[C@@H](C)C(N)=O` [N14, LLQLTVWGIKQLQA] (H-LLQLTVWGIKQLQA-NH2; C-terminus assumed), for which the IC50 was greater than 4 µM.
Regarding `CC[C@H](C)[C@H](NC(=O)[C@H](CC(C)C)NC(=O)[C@H](CO)NC(=O)[C@H](Cc1c[nH]cn1)NC(=O)[C@@H](NC(=O)[C@H](CC(C)C)NC(=O)[C@H](CO)NC(=O)[C@@H](NC(=O)[C@@H](N)Cc1ccc(O)cc1)[C@@H](C)O)[C@@H](C)CC)C(=O)N[C@@H](CCC(=O)O)C(=O)N[C@@H](CCC(=O)O)C(=O)N[C@@H](CO)C(=O)N[C@@H](CCC(N)=O)C(=O)N[C@@H](CC(N)=O)C(=O)N[C@@H](CCC(N)=O)C(=O)N[C@@H](CCC(N)=O)C(=O)N[C@@H](CCC(=O)O)C(=O)N[C@@H](CCCCN)C(=O)N[C@@H](CC(N)=O)C(=O)N[C@@H](CCCCN)C(N)=O` [DP19K] (H-YTSLIHSLIEESQNQQEKNK-NH2; C-terminus assumed), the IC50 was 2.21 ± 0.507 µM.
`CCCCCCCCCCCCCCC[C@@H](O)[C@H](CO)NC(=O)NCCCC[C@H](NC(=O)[C@H](CC(C)C)NC(=O)[C@@H](NC(=O)[C@H](CCCNC(=N)N)NC(=O)[C@H](C)NC(=O)[C@H](CC(C)C)NC(=O)[C@H](CC(C)C)NC(=O)[C@H](CCC(N)=O)NC(=O)[C@H](CCCCN)NC(=O)[C@@H](NC(=O)[C@H](CCCCN)NC(=O)[C@H](Cc1c[nH]c2ccccc12)NC(=O)[C@H](CCC(N)=O)NC(=O)[C@@H](NC(=O)[C@H](CC(C)C)NC(=O)[C@H](CCC(N)=O)NC(=O)[C@H](CC(C)C)NC(=O)[C@@H](N)CCC(=O)O)[C@@H](C)O)[C@@H](C)CC)[C@@H](C)CC)C(N)=O` [N17mut (e, g) K-sphing, ELQLTQWKIKQLLARILK-Sphinganine] (H-ELQLTQWKIKQLLARILK([CO-Sphinganine])-NH2) gave an IC50 of 0.12 ± 0.04 µM.
